No end group written: not given here.
How the values were obtained:
[1] = Attenuation of excessive sweating / hyperhidrosis (summary statements); format: in vivo
[2] = test system: permeabilized chromaffin cells; assay: Inhibition of calcium-induced release of catecholamines in digitonin-permeabilized chromaffin cells; format: cell-based; conditions: 1 mM peptide
Description: The neuronal-exocytosis (neurosecretion) inhibiting capabilities of the known neuronal exocytosis inhibitors became evident through a test that evaluates the strength of said compounds in inhibiting the release of catecholamines induced by calcium in chromaffin cells permeabilized with the detergent digitonin, in accordance with the method described by Gutiérrez et al. (FEBS Lett 1995, 372, 39-43, and J. Biol. Chem. 1997, 272, 2634-2639); as well as an in vitro reconstitution test of the fusion complex (SNARE).
Briefly, the chromaffin cell cultures are incubated with [3 H]-epinephrine and [3 H]-norepinephrine, are permeabilized with 20 μM digitonin, and stimulated with calcium (10 μM), in the presence of the compounds to be tested, and the amount of radioactivity released by the cells to the extracellular medium, which is a reflection of the exocytosis of [3 H]-epinephrine and [3 H]-norepinephrine, is measured.

[3] = test system: fusion protein complex (SNARE); assay: In vitro reconstitution (ELISA) of the fusion protein complex (SNARE); format: biochemical; conditions: peptide present during the assembly of the fusion complex
Procedure: An additional test of in vitro reconstitution was performed to determine the ability of the peptides to interfere with the formation and stability of the fusion complex (SNARE). The test consists of evaluating the in vitro reconstitution of the fusion protein complex with recombinant proteins produced in Escherichia coli. The reconstitution tests, based on ELISA (Enzyme-Linked Immuno Assay) methods, involve the immobilization of protein SNAP-25 in 96-well plates and the subsequent formation of the fusion protein complex by adding the proteins VAMP and syntaxin in the presence and/or absence of the peptides of the invention. The detection of the complex was performed using an antibody against protein syntaxin (anti-syntaxin), followed by an antibody which recognizes the anti-syntaxin antibody, covalently tagged with a peroxidase. The amount of fusion protein complex was tracked by adding 1,2-phenylenediamine dichloride, whose reaction with the peroxidase produces a product with an orangish-yellow color that absorbs 492 nm in an acid medium.

| Compound | attenuation of hyperhidrosis and excessive sweating ([1]; formulation containing 0.5-1.0% Argireline) | attenuation of excessive sweating ([1]; 0.1-0.01%) | inhibition of the release of catecholamines [2] | amount of fusion complex (SNARE) formed in presence of peptide [3] |
| --- | --- | --- | --- | --- |
| Ac-Glu-Glu-Met-Gln-Arg-Arg (Ac-EEMQRR) [Argireline®, acetyl-hexapeptide commercialized under the tradename Argireline® by Lipotec, S. A] | modest effect |  |  |  |
| CCCCCCCCC(=O)OCC(=O)NCc1cc(OC)c(O)cc1I [Calmpasin®, 2-((4-hydroxy-2-iodo-5-methoxybenzyl)amino)-2-oxoethyl nonanoate] |  | unable to attenuate excessive sweating |  |  |
| SEQ. ID NO. 1: peptide from the amino end of SNAP-25; 6 amino acid peptide whose acetylated derivative is Argireline (EEMQRR) |  |  | approximately 20% | significant decrease |
| SEQ. ID NO. 2: peptide from the amino end of SNAP-25 (ELEEMQRRADQLA) |  |  | approximately 35% | significant decrease |

Source: US20250161409A1, “COMPOSITIONS FOR TREATING HYPERHIDROSIS” (PROSPERA BIOTECH, S.L., priority 2022, published 2025)
